Test results taken from patent US6844004B2, “Topical formulations of natamycin/pimaricin” (Board of Regents, The University of Texas System, priority 1997, dated 2005).
In brackets after ≈: the same amount, converted by molar mass.

Key:
[1] = surface in contact with AMB; cited from earlier work
physchem = type: physicochemical; conditions: 22 °C, organic solvent or mixture, thermodynamic from solid
Protocol: Natamycin solubility was determined in several individual vehicles (see Table I). Briefly, a known amount of the drug, as a powder (different lots of purified drug were obtained from Gist-Brocades N.V., Netherlands, and from Sigma Chemical Company, St Louis, Mo.), was equilibrated in the respective solvent at RT (22° C.) over 5 min to 4 hours. An aliquot was then removed and diluted in MeOH prior to HPLC at predetermined times. Based on the Natamycin solubility in these particular vehicles, the inventors attempted to enhance the solubility by mixing different solvents according to the principle of cosolvency (Spiegel and Noseworthy, 1963; Yalkowsky and Roseman, 1981). Several different solvent systems were evaluated relative to the above estimates of necessary solubility to arrive at a clinically relevant optimal stock formulation. […] The “final solvent” is preferably one of the commonly available ointment bases, such as petroleum jelly, cocoa butter, Aquaphor™, all of which are readily available and commonly used for topical administration, either for moisturizing purpose or for dissolving various chemically active compounds.
Solubility Studies. […] Samples of 1 ml were taken at various time intervals, and filtered through a 0.45 μm PTFE™ membrane filter fitted to a syringe assembly (Whatman Inc.), and after appropriate dilution, the Natamycin concentration was determined by HPLC.

[2] = test system: tested strains of Candida spp.; assay: Antifungal sensitivity (MIC); type: cell-based; conditions: all tested strains of Candida spp.
Protocol: (§1) Methodology. The antifungal activity of Natamycin was compared with that of amphotericin B utilizing a previously described assay (Anaissie et al., 1991). Briefly, serial dilutions of Natamycin and AMB were mixed in RPMI growth medium with L-glutamine and MOPS-buffer, pH 7.0 (Sigma Chemical Co., St. Louis, Mo.). The different strains of Candida, Aspergillus and Fusarium spp. were then added to the dishes. After incubation at 35° C. for 48 to 72 hours the plates were evaluated for fungal proliferation. The used fungal strains were obtained from the ATCC or isolated from patients, primarily at the MD Anderson Cancer Center. The Natamycin concentrations in the used solutions were assayed with HPLC to assure the highest possible reproducibility of the drug concentrations.

[3] = test system: Aspergillus strains, except for A. flavus; assay: Antifungal sensitivity (MIC); type: cell-based; conditions: all Aspergillus strains except A. flavus
Protocol: as §1

A. flavus = assay: Antifungal sensitivity (MIC); type: cell-based; conditions: Aspergillus flavus; the tested A. flavus
Protocol: as §1

[4] = test system: tested strains of Fusarium; assay: Antifungal sensitivity (MIC); type: cell-based; conditions: all tested strains of Fusarium
Protocol: as §1

[5] = type: physicochemical
Protocol: Stability of the various Natamycin formulations. To study the physical and chemical stability of the various parenteral formulations, three sets of studies were performed: • (a) Natamycin was dissolved at a concentration of 100-300 mg/ml in HAc (“stock solution”) and incubated at 4° C., at 22° C. and at 40° C. The drug concentration was analyzed by HPLC in samples taken immediately after solubilization and after gradually increasing time intervals of up to 48 hours. • (b) The Natamycin-HAc stock solution was diluted with PEG/water (1:1:1, v:v:v, HAc:PEG:water), or PG/DMSO (1:1:1, v:v:v), or PG/DMSO/PEG (1:1:1:1, v:v:v:v), or aqueous lipid emulsion (1:10 and 1:100, v:v, HAc:Intralipid™), to yield Natamycin concentrations ranging from 1-50 mg/ml. • (c) The HAc-Natamycin mixture was diluted in NS or 5% dextrose to a drug concentration of 1 mg/ml. (d) The HAc-Natamycin mixture was blended with DMSO and Intralipid™, or directly in Intralipid™.
The various formulations were analyzed by HPLC immediately after mixing, then hourly for 8 hours, and then at gradually increasing time intervals up to several weeks, depending on the rate of degradation in the respective solvent system.
The temperature-dependent stability of solubilized Natamycin in the different solvent systems was studied as follows: The drug was dissolved in HAc at 100 mg/ml, and different aliquots were stored at 4° C., at 22° C., and at 40° C. Immediately after solubilization and at various intervals up to 48 hours later, aliquots from the different samples were analyzed by HPLC. The drug samples stored at 4° C. and at 22° C. degraded slower than those stored at higher temperatures: at 40° C. the Natamycin started degrading within 1 hour after the start of incubation, and at RT there was a loss of 5-10% in the first 4 hours.

Structure (SMILES) | inflammation of the mucosal surface, share of treated subjects [1] [%] | solubility thermodynamic (physchem) [mg/mL] | MIC (sensitive in the range) [2] [µg/mL] | MIC [3] [µg/mL] | MIC (A. flavus) [µg/mL] | MIC (sensitive in the range) [4] [µg/mL] | loss of drug (degradation) ([5]; 100 mg/ml) | time to start of degradation ([5]; 100 mg/ml) [h] | time until degradation apparent ([5]; 100 mg/ml) [h] | time stable (by HPLC) ([5]; HAc and DMSO primary solvent, Intralipid, lyophilized, reconstituted to 10 mg/ml with distilled water, RT) | time stable ([5]; HAc-Natamycin stock diluted with 20% Intralipid to 10-50 mg/ml)
C[C@@H]1[C@H](O)[C@@H](C)/C=C/C=C/C=C/C=C/C=C/C=C/C=C/[C@H](O[C@@H]2O[C@H](C)[C@@H](O)[C@H](N)[C@@H]2O)C[C@@H]2O[C@](O)(C[C@@H](O)C[C@@H](O)[C@H](O)CC[C@@H](O)C[C@@H](O)CC(=O)O[C@H]1C)C[C@H](O)[C@H]2C(=O)O [AMB, Amphotericin B] | > 75 | – | – | – | – | – | – | – | – | – | –
C[C@@H]1C/C=C/C=C/C=C/C=C/[C@H](O[C@@H]2O[C@H](C)[C@@H](O)[C@H](N)[C@@H]2O)C[C@@H]2O[C@](O)(C[C@@H](O)C[C@H]3O[C@@H]3/C=C/C(=O)O1)C[C@H](O)[C@H]2C(=O)O [Natamycin, Pimaricin] | – | > 100 | 2 to 4 | 2 to 4 (≈ 3 to 6.01 µM) | 16 (≈ 24 µM) | 2 to 4 | 5-10% | ≤ 1 | 8 to 12 | more than 24 hours | more than 6 weeks
